# Data as given in PMC9863764, “Roles of Human Liver Cytochrome P450 Enzymes in Tenatoprazole Metabolism” (Pharmaceutics, 2022).
# Where “and” joins values, the source holds several entries; their conditions need not be identical. Identical values can stand only once.
# Key:
# Type in all cases: in vitro ADME
# human CYP3A4 [1] = biological target: T1, human CYP3A4 (Homo sapiens, UniProt P08684); assay: Sulfoxidation of tenatoprazole sulfide by recombinant CYP3A4 (chiral chromatography)
# T1 construct: made in house; host or cells: Escherichia coli (membrane fractions)
# Description: The sulfoxidation reaction of tenatoprazole sulfide by CYP3A4 was measured by chiral chromatography. […] The reaction was initiated by adding NGS at 37 °C. […] After the residues were solubilized in 180 μL mobile phase, 30 μL samples were injected onto a Chiralpak AD column (4.6 × 150 mm, 10 μm; Daicel Corporation, Osaka, Japan) with a hexane-ethanol mixture (30:70, v/v) as the mobile phase. The products formed were analyzed by HPLC at […]. […] The kinetic parameters (kcat and Km) were determined by using a Michaelis-Menten nonlinear regression analysis with GraphPad Prism (GraphPad Software, San Diego, CA, USA).
# human CYP3A4 [2] = biological target: T1, human CYP3A4; assay: Steady-state kinetics of tenatoprazole oxidation by recombinant CYP3A4; conditions: 30 min incubation, LC-QTOF-MS
# Description: Pooled liver microsomes from human samples were obtained from ThermoFisher Scientific (Waltham, MA, USA). […] Membrane fractions expressing both P450 and CPR of E. coli were prepared as described previously and were used for the catalytic activity assays. […] The reaction was started by adding NGS and the incubation was continued for the indicated time at 37 °C. Incubation was then stopped by adding ice-chilled ethyl acetate (0.50 mL) and omeprazole (IS) was added to a final concentration of 20 μM. […] Phenomenex, Torrance, CA, USA). The products formed were analyzed by HPLC at […]. The HPLC profile of the authentic chemicals (i.e., tenatoprazole, tenatoprazole sulfide, and their metabolites) were used to identify the major metabolites of tenatoprazole and tenatoprazole sulfide produced by the recombinant P450s. […] The kinetic parameters (kcat and Km) were determined by using a Michaelis-Menten nonlinear regression analysis with GraphPad Prism (GraphPad Software, San Diego, CA, USA). To further characterize the nature of the metabolites, the reaction mixtures were additionally analyzed by a 6530 Quadrupole Time-of-Flight (QTOF) mass spectrometer (MS) (Agilent, Santa Clara, CA, USA) coupled with a 1290 Infinity ultra-performance liquid chromatography (UPLC) system (Agilent). […] The reaction was initiated by adding NGS at 37 °C. […] Then, the upper layer was transferred to a glass tube and dried under nitrogen stream. The residues were reconstituted in 0.30 mL acetonitrile, then 1 μL samples were injected into an LC-MS system. The analytical column was a Hypersil Gold C18 column (100 × 2.1 mm, 1.9 μm; ThermoFisher Scientific). […] A gradient program was used for HPLC separation, and the flow rate was 0.4 mL/min. […] The column and autosampler were kept at 35 °C and 4 °C, respectively, during analysis. Electrospray ionization was performed in the positive ion mode. The sheath gas flow rate was 8 L/min. The flow rate of drying gas was 12 L/min at 350 °C, and the nebulizer's temperature was set at 350 °C. The capillary voltage was 4500 V in the positive mode, and that of the fragmentor was 175 V. Data acquisition were done over a scan range from 50 m/z to 1000 m/z in the centroid mode. A reference compound (C18H18O6N3P3F24; [M+H]^+ = 922.0098) was used to correct all of the masses. Tandem mass spectrometry (MS/MS) data were acquired in profile mode via autoanalysis for structural characterization with 30 eV of the collision energy.
# [3] = tested on: human liver microsomes (HLMs); assay: Time course of oxidation of tenatoprazole and tenatoprazole sulfide by human liver microsomes (HPLC); conditions: human, 12 h, 500 μM, pH 7.4
# Description: A racemate of tenatoprazole was used in this work because the chiral tenatoprazoles currently are not commercially available. The reactions using HLMs contained incubation at 37 °C in 0.25 mL mixtures containing P450 (0.5 mg protein/mL) in 100 mM potassium phosphate buffer (pH 7.4), an NADPH-generating system (NGS, final concentration of 10 mM glucose-6-phosphate, 0.50 mM NADP^+, 1.0 IU yeast glucose-6-phosphate dehydrogenase per mL), and 0.1 mM of tenatoprazole or tenatoprazole sulfide. Incubations generally were performed for 2 h in the presence or absence of the NGS. Tenatoprazole and its metabolites were extracted twice using cold ethyl acetate as an organic solvent. Then centrifugation (1000× g, 20 min) was done to separate the organic layer from the aqueous layer. Omeprazole was added to this solution as an internal standard (IS) at a final 20 μM concentration. The organic layer was concentrated under nitrogen gas stream. The dried residues were then dissolved in the mobile phase (180 μL) and 30 μL was injected onto the column.
# High-performance liquid chromatography (HPLC) was performed on the basis of a previously developed method for tenatoprazole and its metabolites, as described elsewhere. The analytical column was a Gemini C18 column (4.6 × 150 mm, 5 μm; Phenomenex), and the HPLC mobile phase consisted of acetonitrile and 5 mM potassium phosphate buffer (pH 7.3) (25:75, v/v). The substrate and its metabolites were detected at A302. The HPLC profile of the authentic compounds (i.e., tenatoprazole and its metabolites) were measured to compare to identify the major metabolites of tenatoprazole and tenatoprazole sulfide produced by HLMs.
# The time course of the oxidation of tenatoprazole and tenatoprazole sulfide by HLMs (0.5 mg protein/mL) was analyzed to the estimated yield of metabolites and percentage of each metabolite using 0.60 mM substrate in 0.25 mL of 0.10 M potassium phosphate buffer (pH 7.4). After NGS was added to initiate the reaction, the samples were incubated for the designated time (i.e., 2, 5, 10, and 30 min, and 1, 2, 4, 8, 12, and 24 h) at 37 °C. Product formation was quantified using HPLC analysis, as mentioned above.
# Calibration standard curves of tenatoprazole were made using a blank control sample (a reaction mixture without substrate and IS) and 12 samples containing tenatoprazole and omeprazole (IS) covering the concentration ranges of 1–500 μM, as described previously. The peak area ratio of tenatoprazole to IS was linear with respect to the analyte concentration over the range of 1–500 μM. The metabolites were quantified by comparing the peak areas of each metabolite to the mean peak areas of the IS (20 μM omeprazole).
# T1 sequence (P08684 whole entry): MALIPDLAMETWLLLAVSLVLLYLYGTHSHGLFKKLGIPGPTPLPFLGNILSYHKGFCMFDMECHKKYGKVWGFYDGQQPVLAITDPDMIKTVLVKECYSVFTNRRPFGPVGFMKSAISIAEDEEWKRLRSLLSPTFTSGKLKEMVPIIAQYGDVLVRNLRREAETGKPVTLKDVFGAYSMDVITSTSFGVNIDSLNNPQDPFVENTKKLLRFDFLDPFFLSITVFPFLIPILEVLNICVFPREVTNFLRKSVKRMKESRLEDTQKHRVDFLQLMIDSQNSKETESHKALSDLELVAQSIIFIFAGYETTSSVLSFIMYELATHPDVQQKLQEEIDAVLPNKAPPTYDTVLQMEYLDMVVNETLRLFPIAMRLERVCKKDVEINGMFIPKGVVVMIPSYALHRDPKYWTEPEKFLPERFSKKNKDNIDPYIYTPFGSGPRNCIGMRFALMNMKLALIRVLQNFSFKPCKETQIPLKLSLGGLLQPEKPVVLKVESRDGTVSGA
structure (smiles),measurement,setting,value
COc1ccc2[nH]c([S@+]([O-])Cc3ncc(C)c(OC)c3C)nc2n1 [R-tenatoprazole],fold higher catalytic efficiency of R-tenatoprazole formation than S-tenatoprazole formation,"human CYP3A4 [1]; substrate tenatoprazole sulfide, CYP3A4",1.7 fold
same,kcat of product formation,"human CYP3A4 [1]; substrate tenatoprazole sulfide, recombinant CYP3A4, chiral chromatography, label = product formed",0.0667 s⁻¹ and 0.0667 ± 0.005 s⁻¹
"COc1ccc2[nH]c(SCc3c(C)c(OC)c(CO)c[n+]3[O-])nc2n1 [1′-N-oxy-5′-OH tenatoprazole sulfide, 1′-N-oxy-5′-hydroxytenatoprazole sulfide]",amount of metabolite observed in CYP3A4-catalyzed reaction,human CYP3A4 [2],only trace amounts
"COc1ccc2[nH]c(SCc3ncc(C)c(OC)c3C)nc2n1 [tenatoprazole sulfide, Tenatoprazole sulfide]",conversion yield to tenatoprazole sulfide,[3],94.8%
same,tenatoprazole sulfide remained,[3]; microsomes,More than 99%
same,sulfoxidation activity to produce tenatoprazole,"human CYP3A4 [1]; recombinant CYP3A4, substrate tenatoprazole sulfide",showed the sulfoxidation activity
